Source: patent EP4624465A1, “COMPOUND SERVING AS DDR1 KINASE INHIBITOR, AND MEDICINE” (Nippon Shinyaku Co., Ltd., priority 2022, dated 2024)
Structures can show the parent of a compound that is named as a salt.

Experiments:
DDR1 kinase [1] = target: T1, DDR1 kinase (Homo sapiens, UniProt Q08345); assay: Evaluation of DDR1 kinase inhibition (LANCE Ultra TR-FRET kinase assay); format: biochemical; design: purchased Carna Biosciences 08-113; settings: DDR1 protein 0.5 nM, LANCE Ultra ULight-poly GAT substrate, 2 hours at room temperature, duplicate; read-out: DDR-1 IC50
Target sequence in this assay (Q08345 19-876 isoform Q08345-2 limits assumed): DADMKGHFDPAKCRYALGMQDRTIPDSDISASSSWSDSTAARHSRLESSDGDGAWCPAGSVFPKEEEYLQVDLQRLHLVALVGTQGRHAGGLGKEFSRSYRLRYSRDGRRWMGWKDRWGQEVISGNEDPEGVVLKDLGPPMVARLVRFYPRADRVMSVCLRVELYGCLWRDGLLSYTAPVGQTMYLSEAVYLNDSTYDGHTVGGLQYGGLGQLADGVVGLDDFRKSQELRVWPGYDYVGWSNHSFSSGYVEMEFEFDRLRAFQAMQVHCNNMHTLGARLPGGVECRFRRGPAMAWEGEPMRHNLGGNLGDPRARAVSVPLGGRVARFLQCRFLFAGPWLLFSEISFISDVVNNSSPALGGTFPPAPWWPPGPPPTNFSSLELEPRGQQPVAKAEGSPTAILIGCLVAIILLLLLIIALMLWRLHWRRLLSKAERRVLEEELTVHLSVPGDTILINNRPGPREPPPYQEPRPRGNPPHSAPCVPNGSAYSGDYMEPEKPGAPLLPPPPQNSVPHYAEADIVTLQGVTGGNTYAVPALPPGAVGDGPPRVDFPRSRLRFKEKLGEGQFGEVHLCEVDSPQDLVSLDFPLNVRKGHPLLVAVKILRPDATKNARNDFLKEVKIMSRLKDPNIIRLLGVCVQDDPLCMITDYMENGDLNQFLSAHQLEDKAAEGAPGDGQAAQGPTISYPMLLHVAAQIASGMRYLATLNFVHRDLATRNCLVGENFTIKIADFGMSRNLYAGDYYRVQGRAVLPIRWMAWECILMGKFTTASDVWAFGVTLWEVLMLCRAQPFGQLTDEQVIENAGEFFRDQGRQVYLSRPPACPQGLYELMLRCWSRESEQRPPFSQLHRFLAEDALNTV

DDR1 kinase [2] = target: T1, DDR1 kinase; assay: Evaluation of DDR1 kinase inhibition in DDR1-expressing U2OS cells (type I collagen stimulation, PathHunter detection); format: cell-based; design: host or cells: U2OS; settings: type I collagen 50 µg/mL stimulation, duplicate, read-out: DDR-1 IC50
Method: The solution was further diluted in an E-MEM medium (Fujifilm Wako Pure Chemicals, 051-07615) containing 10% fetal bovine serum (FBS, Gibco, 10270106) to 60000, 6000, 600, 60, 6, and 0.6 nM to prepare test substance solutions. 2. […] On the following day, after the plate was left at room temperature for 1 hour, a detection solution was added to the wells at […] according to the handling instructions for the PathHunter® Detection Kit (DiscoverX, 93-0001), and then incubated at room temperature for 2 hours. After the incubation, a luminescence intensity was measured by Envision (Perkin-Elmer). Tests were performed in duplicate. 3.
Target sequence in this assay (Q08345 19-913): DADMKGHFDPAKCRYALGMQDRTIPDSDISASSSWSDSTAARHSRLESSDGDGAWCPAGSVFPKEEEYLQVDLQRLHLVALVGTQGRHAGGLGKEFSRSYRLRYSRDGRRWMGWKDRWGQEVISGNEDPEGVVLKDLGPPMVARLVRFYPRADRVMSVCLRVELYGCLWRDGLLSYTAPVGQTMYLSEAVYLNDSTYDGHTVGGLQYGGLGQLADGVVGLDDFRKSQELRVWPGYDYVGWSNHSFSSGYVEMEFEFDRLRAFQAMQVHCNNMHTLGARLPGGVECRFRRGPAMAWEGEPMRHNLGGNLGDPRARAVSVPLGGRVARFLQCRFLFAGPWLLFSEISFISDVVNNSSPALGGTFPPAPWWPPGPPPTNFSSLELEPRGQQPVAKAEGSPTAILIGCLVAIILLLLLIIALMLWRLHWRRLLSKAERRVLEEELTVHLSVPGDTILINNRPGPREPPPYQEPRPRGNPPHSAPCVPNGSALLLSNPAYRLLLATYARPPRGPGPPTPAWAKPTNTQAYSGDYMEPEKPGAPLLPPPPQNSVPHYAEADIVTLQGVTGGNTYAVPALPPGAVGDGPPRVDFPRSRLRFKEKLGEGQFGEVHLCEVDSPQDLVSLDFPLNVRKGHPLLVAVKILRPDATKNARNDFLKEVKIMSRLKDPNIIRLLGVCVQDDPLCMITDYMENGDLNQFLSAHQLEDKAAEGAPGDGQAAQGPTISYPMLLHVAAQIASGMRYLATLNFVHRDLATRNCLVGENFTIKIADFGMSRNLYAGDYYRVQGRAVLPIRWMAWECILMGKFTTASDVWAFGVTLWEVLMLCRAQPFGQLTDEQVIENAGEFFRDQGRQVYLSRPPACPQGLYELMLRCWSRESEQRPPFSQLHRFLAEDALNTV

Row | SMILES | IC50 (DDR1 kinase [1]) [nM] | IC50 (DDR1 kinase [2]) [nM]
1 | CC(C)[C@@H]1COCCN1C(=O)Cn1nc(C2CN(C(=O)c3ccnc(N)c3)C2)c2c(F)cc(F)cc21 [Compound E-83, 2-{3-[1-(2-aminopyridine-4-carbonyl)azetidin-3-yl]-4,6-difluoro-1H-indazol-1-yl]-1-[(3R)-3-(propan-2-yl)morpholin-4-yl]ethan-1-one] | 0.3 | 74
2 | O=C(c1ccnc(NC2CCOCC2)c1)N1CC(c2nn(CC(=O)N3CCC[C@H]3C(F)(F)F)c3cc(F)cc(F)c23)C1 [Compound E-88, 2-[4,6-difluoro-3-(1-{2-[(oxan-4-yl)amino]pyridine-4-carbonyl}azetidin-3-yl)-1H-indazol-1-yl]-1-[(2S)-2-(trifluoromethyl)pyrrolidin-1-yl]ethan-1-one] | 21 | 1400
3 | Cc1c(C(=O)N2CC(c3nn(CC(=O)N4CCO[C@H](C(F)(F)F)C4)c4cc(F)cc(F)c34)C2)ccnc1N [Compound E-89, 2-{3-[1-(2-amino-3-methylpyridine-4-carbonyl)azetidin-3-yl]-4,6-difluoro-1H-indazol-1-yl]-1-[(2S)-2-(trifluoromethyl)morpholin-4-yllethan-1-one hydrochloride] | 45 | 400
4 | O=C(c1cnc(NC2CC2)s1)N1CC(c2nn(CC(=O)N3CCC[C@H]3C(F)(F)F)c3cc(F)cc(F)c23)C1 [Compound E-98, 2-(3-{1-[2-(cyclopropylamino)-1,3-thiazole-5-carbonyl]azetidin-3-yl]-4,6-difluoro-1H-indazol-1-yl)-1-[(2S)-2-(trifluoromethyl)pyrrolidin-1-yl]ethan-1-one] | 86 | 3700
5 | Cc1nc(NC2CC2)sc1C(=O)N1CC(c2nn(CC(=O)N3CCC[C@H]3C(F)(F)F)c3cc(F)cc(F)c23)C1 [Compound E-99, 2-(3-{1-[2-(cyclopropylamino)-4-methyl-1,3-thiazole-5-carbonyl]azetidin-3-yl}-4,6-difluoro-1H-indazol-1-y1)-1-[(2S)-2-(trifluoromethyl)pyrrolidin-1-yl]ethan-1-one] | 40 | 150
6 | O=C(c1cnc2ccccn12)N1CC(c2nn(CC(=O)N3CCC[C@H]3C(F)(F)F)c3cc(F)cc(F)c23)C1 [Compound E-101] | 21 | 270
7 | O=C(c1cnn2ccsc12)N1CC(c2nn(CC(=O)N3CCC[C@H]3C(F)(F)F)c3cc(F)cc(F)c23)C1 [Compound E-102] | 13 | 3300
8 | Nc1ncc(C(=O)N2CC(c3nn(CC(=O)N4CCC[C@H]4C(F)(F)F)c4cc(F)cc(F)c34)C2)o1 [Compound E-105, 2-{3-[1-(2-amino-1,3-oxazole-5-carbonyl)azetidin-3-yl]-4,6-difluoro-1H-indazol-1-yl}-1-[(28)-2-(trifluoromethyl)pyrrolidin-1-yl]ethan-1-one] | 79 | 370
9 | Cc1nc(N)sc1C(=O)N1CC(c2nn(CC(=O)N3CCC[C@H]3C(F)(F)F)c3cc(F)cc(F)c23)C1 [Compound E-106] | 5.2 | 180
10 | Nc1cc(C(=O)N2CC(c3nn(C(F)C(=O)N4CCC[C@H]4C(F)(F)F)c4cc(F)cc(F)c34)C2)ccn1 (stereo partly drawn) [Compound E-107, 2-{3-[1-(2-aminopyridine-4-carbonyl)azetidin-3-yl]-4,6-difluoro-1H-indazol-1-yl}-2-fluoro-1-[(2S)-2-(trifluoromethyl)pyrrolidin-1-yl]ethan-1-one] | 91 | 670

Other lines, results leading:

Row | IC50 (DDR1 kinase [1]) [nM] | IC50 (DDR1 kinase [2]) [nM] | SMILES
11 | 1.5 | 61 | Nc1cc(C(=O)N2CCC(c3nn(CC(=O)N4CCC[C@H]4C(F)(F)F)c4cccc(F)c34)CC2)ccn1 [Compound E-81, 2-{3-[1-(2-aminopyridine-4-carbonyl)piperidin-4-yl]-4-fluoro-1H-indazol-1-yl}-1-[(28)-2-(trifluoromethyl)pyrrolidin-1-yl]ethan-1-one]
12 | 0.8 | 130 | Nc1cc(C(=O)N2CC(c3nn(CC(=O)N4CCO[C@H](C(F)(F)F)C4)c4cc(F)cc(F)c34)C2)ccn1 [Compound E-82, 2-{3-[1-(2-aminopyridine-4-carbonyl)azetidin-3-yl]-4,6-difluoro-1H-indazol-1-yl}-1-[(2S)-2-(trifluoromethyl)morpholin-4-yl]ethan-1-one]
13 | 0.3 | 2300 | C[C@@H]1CN(C(=O)Cn2nc(C3CN(C(=O)c4ccnc(N)c4)C3)c3c(F)cc(F)cc32)C[C@H](C)O1 [Compound E-84, 2-{3-[1-(2-aminopyridine-4-carbonyl)azetidin-3-yl)-4,6-difluoro-1H-indazol-1-yl}-1-[(2R,68)-2,6-dimethylmorpholin-4-yl]ethan-1-one]
14 | 22 | 93 | CN(CC(F)(F)F)C(=O)Cn1nc(C2CN(C(=O)c3ccnc(N)c3)C2)c2c(F)cccc21 [Compound E-87, 2-{3-[1-(2-aminopyridine-4-carbonyl)azetidin-3-yl]-4-fluoro-1H-indazol-1-yl}-N-methyl-N-(2,2,2-trifluoroethyl)acetamide]
15 | 7.4 | 96 | Nc1cc(C(=O)N2CCC(c3nn(CC(=O)N4CCO[C@H](C(F)(F)F)C4)c4cccc(F)c34)CC2)ccn1 [Compound E-90, 2-{3-[1-(2-aminopyridine-4-carbonyl)piperidin-4-yl]-4-fluoro-1H-indazol-1-yl]-1-[(2S)-2-(trifluoromethyl)morpholin-4-yl]ethan-1-one]
16 | 11 | 610 | Nc1cc(C(=O)N2CCC(c3nn(CC(=O)N4CCO[C@@H](C(F)(F)F)C4)c4cccc(F)c34)CC2)ccn1 [Compound E-91, 2-{3-[1-(2-aminopyridine-4-carbonyl)piperidin-4-yl]-4-fluoro-1H-indazol-1-yl]-1-[(2R)-2-(trifluoromethyl)morpholin-4-yl]ethan-1-one]
17 | 71 | 1400 | Nc1cc(C(=O)N2CC(c3nn(Cc4cn(CC5CCC5)nn4)c4cccc(F)c34)C2)ccn1 [Compound E-92, 4-[3-(1-{[1-(cyclobutylmethyl)-1H-1,2,3-triazol-4-yl]methyl}-4-fluoro-1H-indazol-3-yl)azetidine-1-carbonyl]pyridin-2-amine hydrochloride]
18 | 7.7 | 480 | Nc1cc(C(=O)N2CC(c3nn(CC(=O)N4CCO[C@@H](C(F)(F)F)C4)c4cccc(F)c34)C2)ccn1 [Compound E-95, 2-{3-[1-(2-aminopyridine-4-carbonyl)azetidin-3-yl]-4-fluoro-1H-indazol-1-yl}-1-[(2R)-2-(trifluoromethyl)morpholin-4-yl]ethan-1-one hydrochloride]
19 | 0.9 | 84 | Nc1cc(C(=O)N2CC(c3nn(CC(=O)N4CCC[C@H]4C(F)(F)F)c4cccc(F)c34)C2)ccn1 [Compound E-96, 2-{3-[1-(2-aminopyridine-4-carbonyl)azetidin-3-yl]-4-fluoro-1H-indazol-1-yl}-1-[(2S)-2-(trifluoromethyl)pyrrolidin-1-yl]ethan-1-one]
20 | 34 | 110 | Nc1cc(C(=O)N2CC(c3nn(CC(=O)N4CCO[C@@H](C(F)(F)F)C4)c4cncc(F)c34)C2)ccn1 [Compound E-100]
21 | 5.2 | 110 | Nc1cc(C(=O)N2CC(c3nn(Cc4nc(-c5ccc(F)cc5)no4)c4cccc(F)c34)C2)ccn1 [Compound E-104, 4-[3-(4-fluoro-1-{[3-(4-fluorophenyl)-1,2,4-oxadiazol-5-yl]methyl}-1H-indazol-3-yl)azetidine,1-carbonyl)pyridin-2-amine]
